pIC50: −log10 of the molar value.
Experiments:
[1] = biological target: Protein tyrosine phosphatase type IVA 3 (Homo sapiens, UniProt O75365); test: Inhibition of PRL3 (unknown origin) using DiFMUP as fluorogenic phosphate substrate assessed as DiFMUP dephosphorylation
[2] = biological target: T1, Protein tyrosine phosphatase type IVA 2 (Homo sapiens, UniProt Q12974); test: Inhibition of PRL2 (unknown origin) using DiFMUP as fluorogenic phosphate substrate assessed as DiFMUP dephosphorylation
T1 sequence (Q12974 whole entry): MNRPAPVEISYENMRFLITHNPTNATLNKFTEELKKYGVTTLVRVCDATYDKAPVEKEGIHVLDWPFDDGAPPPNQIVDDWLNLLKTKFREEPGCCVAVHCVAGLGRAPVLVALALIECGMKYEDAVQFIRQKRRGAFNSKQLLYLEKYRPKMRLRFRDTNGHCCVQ

[3] = biological target: T2, Protein tyrosine phosphatase type IVA 1 (Homo sapiens, UniProt Q93096); test: Inhibition of PRL1 (unknown origin) using DiFMUP as fluorogenic phosphate substrate assessed as DiFMUP dephosphorylation
T2 sequence (Q93096 whole entry): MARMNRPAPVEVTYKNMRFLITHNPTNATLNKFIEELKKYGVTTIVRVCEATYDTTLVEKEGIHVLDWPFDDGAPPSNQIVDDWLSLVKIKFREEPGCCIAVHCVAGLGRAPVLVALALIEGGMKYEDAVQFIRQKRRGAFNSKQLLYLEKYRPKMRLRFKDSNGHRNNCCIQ

Chain of Protein tyrosine phosphatase type IVA 3 (O75365 whole entry): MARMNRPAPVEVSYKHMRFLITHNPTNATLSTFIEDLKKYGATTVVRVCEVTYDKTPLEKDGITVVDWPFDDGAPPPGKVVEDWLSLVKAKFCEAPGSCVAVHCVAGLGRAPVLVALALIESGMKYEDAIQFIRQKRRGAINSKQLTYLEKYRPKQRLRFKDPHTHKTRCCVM

| pIC50 [1] | pIC50 [2] | pIC50 [3] | SMILES |
| --- | --- | --- | --- |
| 3.99 | 3.73 | 3.68 | O=C(O)c1ccc[n+]2c([O-])c(-c3ccccc3)sc12 |
|  | 3.73 | 4.46 | O=C1CSC(=S)N1 [CHEBI:8830] |
